Results reported in patent US9518018B2, “3-alkoxy, thioalkyl and amino-4-amino-6-(substituted)picolinates and their use as herbicides” (Dow AgroSciences LLC, priority 2011, dated 2016).

How the values were obtained:
Experiment in all cases: Post-Emergent Test I herbicidal activity
Assay type in all cases: in vivo
[1] = test system: ABUTH: velvetleaf (Abutilon theophrasti); conditions: Abutilon theophrasti, post-emergence, 336 h, read-out: Visual Growth Reduction (%)-14 Days after Application ABUTH; for pest or weed control at 70 g/ha: Table 3, 70 g ai/ha; for pest or weed control at 140 g/ha: Table 3, 140 g ai/ha
Description: (§1) Seeds or nutlets of the desired test plant species were planted in Sun Gro Metro-Mix® 360 planting mixture, which typically has a pH of 6.0 to 6.8 and an organic matter content of about 30 percent, in plastic pots with a surface area of 64 square centimeters. When required to ensure good germination and healthy plants, a fungicide treatment and/or other chemical or physical treatment was applied. The plants were grown for 7-21 d in a greenhouse with an approximate 15 h photoperiod which was maintained at about 23-29° C. during the day and 22-28° C. during the night. Nutrients and water were added on a regular basis and supplemental lighting was provided with overhead metal halide 1000-Watt lamps as necessary. The plants were employed for testing when they reached the first or second true leaf stage.
(§2) A weighed amount, determined by the highest rate to be tested, of each test compound was placed in a 25 mL glass vial and was dissolved in 4 mL of a 97:3 v/v mixture of acetone and DMSO to obtain concentrated stock solutions. […] The concentrated stock solutions obtained were diluted with 20 mL of an aqueous mixture containing acetone, water, isopropyl alcohol, DMSO, Atplus 411F crop oil concentrate, and Triton® X-155 surfactant in a 48.5:39:10:1.5:1.0:0.02 v/v ratio to obtain spray solutions containing the highest application rates. Additional application rates were obtained by serial dilution of 12 mL of the high rate solution into a solution containing 2 mL of 97:3 v/v mixture of acetone and DMSO and 10 mL of an aqueous mixture containing acetone, water, isopropyl alcohol, DMSO, Atplus 411F crop oil concentrate, and Triton X-155 surfactant in a 48.5:39:10:1.5:1.0:0.02 v/v ratio to obtain ½×, ¼×, ⅛× and 1/16× rates of the high rate. Compound requirements are based upon a 12 mL application volume at a rate of 187 liters per hectare (L/ha). Formulated compounds were applied to the plant material with an overhead Mandel track sprayer equipped with 8002E nozzles calibrated to deliver 187 L/ha over an application area of 0.503 square meters at a spray height of 18 inches (43 cm) above the average plant canopy height. Control plants were sprayed in the same manner with the solvent blank.
(§3) The treated plants and control plants were placed in a greenhouse as described above and watered by subirrigation to prevent wash-off of the test compounds. After 14 d, the condition of the test plants as compared with that of the untreated plants was determined visually and scored on a scale of 0 to 100 percent where 0 corresponds to no injury and 100 corresponds to complete kill.
(§4) By applying the well-accepted probit analysis as described by J. Berkson in Journal of the […], 48, 565 (1953) and by D. Finney in “Probit Analysis” Cambridge University Press (1952), the above data can be used to calculate GR20, GR50 and GR80 values, which are defined as growth reduction factors that correspond to the effective dose of herbicide required to kill or control 20 percent, 50 percent or 80 percent, respectively, of a target plant.

[2] = test system: ZEAMX: corn (Zea mays); conditions: Zea mays, post-emergence, 336 h, read-out: Visual Growth Reduction (%)-14 Days after Application ZEAMX; for pest or weed control at 70 g/ha: Table 3, 70 g ai/ha; for pest or weed control at 140 g/ha: Table 3, 140 g ai/ha
Description: as §1, §2, §3, §4

[3] = test system: CYPES: yellow nutsedge (Cyperus esculentus); conditions: post-emergence, 336 h, read-out: Visual Growth Reduction (%)-14 Days after Application CYPES; for pest or weed control at 70 g/ha: Table 3, 70 g ai/ha; for pest or weed control at 140 g/ha: Table 3, 140 g ai/ha
Description: as §1, §2, §3, §4

[4] = test system: ORYSA: rice (Oryza sativa); conditions: post-emergence, 336 h, read-out: Visual Growth Reduction (%)-14 Days after Application ORYSA; for pest or weed control at 70 g/ha: Table 3, 70 g ai/ha; for pest or weed control at 140 g/ha: Table 3, 140 g ai/ha
Description: as §1, §2, §3, §4

[5] = test system: CHEAL: lambsquarters (Chenopodium album); conditions: Chenopodium album, post-emergence, 336 h, read-out: Visual Growth Reduction (%)-14 Days after Application CHEAL; for pest or weed control at 70 g/ha: Table 3, 70 g ai/ha; for pest or weed control at 140 g/ha: Table 3, 140 g ai/ha
Description: as §1, §2, §3, §4

[6] = test system: EPHHL: wild poinsettia (Euphorbia heterophylla); conditions: post-emergence, 336 h, read-out: Visual Growth Reduction (%)-14 Days after Application EPHHL; for pest or weed control at 70 g/ha: Table 3, 70 g ai/ha; for pest or weed control at 140 g/ha: Table 3, 140 g ai/ha
Description: as §1, §2, §3, §4

[7] = test system: ECHCG: barnyardgrass (Echinochloa crus-galli); conditions: post-emergence, 336 h, read-out: Visual Growth Reduction (%)-14 Days after Application ECHCG; for pest or weed control at 70 g/ha: Table 3, 70 g ai/ha; for pest or weed control at 140 g/ha: Table 3, 140 g ai/ha
Description: as §1, §2, §3, §4

Row | Structure (SMILES) | pest or weed control at 140 g/ha [1] | pest or weed control at 140 g/ha [2] | pest or weed control at 140 g/ha [3] | pest or weed control at 140 g/ha [4] | pest or weed control at 140 g/ha [5] | pest or weed control at 140 g/ha [6] | pest or weed control at 140 g/ha [7] | also measured
1 | COC(=O)c1nc(-c2ccc(Br)c(F)c2)c(F)c(N)c1OC [Compound 21] | – | – | – | – | – | – | – | pest or weed control at 70 g/ha [1]: 85%; pest or weed control at 70 g/ha [2]: 50%; pest or weed control at 70 g/ha [3]: 70%; pest or weed control at 70 g/ha [4]: 0%; pest or weed control at 70 g/ha [5]: 100%; pest or weed control at 70 g/ha [6]: 100%; pest or weed control at 70 g/ha [7]: 50%
2 | COC(=O)c1nc(-c2ccc(I)c(F)c2F)c(F)c(N)c1OC [Compound 24] | 60% | 75% | 100% | 0% | 65% | 100% | 50% | –
3 | COC(=O)c1nc(-c2ccc(I)c(F)c2)c(F)c(N)c1OC [Compound 27] | 60% | 70% | 100% | 0% | 90% | 100% | 60% | –
4 | COC(=O)c1nc(-c2ccc(Cl)cc2F)cc(NC(C)=O)c1OC [Compound 4, Methyl 4-acetamido-6-(4-chloro-2-fluorophenyl)-3-methoxypicolinate] | 80% | 0% | 0% | 0% | 100% | 100% | 0% | –
5 | COc1c(C(=O)O)nc(-c2ccc(Cl)cc2F)c(F)c1N [Compound 71] | – | – | – | – | – | – | – | pest or weed control at 70 g/ha [1]: 80%; pest or weed control at 70 g/ha [2]: 70%; pest or weed control at 70 g/ha [3]: 100%; pest or weed control at 70 g/ha [4]: 0%; pest or weed control at 70 g/ha [5]: 90%; pest or weed control at 70 g/ha [6]: 100%; pest or weed control at 70 g/ha [7]: 85%
6 | COc1c(C(=O)O)nc(-c2ccc(I)cc2)c(F)c1N [Compound 55] | – | – | – | – | – | – | – | pest or weed control at 132 g/ha ([1]; Table 3, 132 g ai/ha): 85%; pest or weed control at 132 g/ha ([2]; Table 3, 132 g ai/ha): 80%; pest or weed control at 132 g/ha ([3]; Table 3, 132 g ai/ha): 100%; pest or weed control at 132 g/ha ([4]; Table 3, 132 g ai/ha): 10%; pest or weed control at 132 g/ha ([5]; Table 3, 132 g ai/ha): 90%; pest or weed control at 132 g/ha ([6]; Table 3, 132 g ai/ha): 100%; pest or weed control at 132 g/ha ([7]; Table 3, 132 g ai/ha): 100%
7 | COC(=O)c1nc(-c2ccc(Cl)c(C(C)F)c2F)c(F)c(N)c1OC (stereo not shown) [Compound 33, methyl 4-amino-6-(4-chloro-2-fluoro-3-(1-fluoroethyl)phenyl)-5-fluoro-3-methoxypicolinate] | 100% | 70% | 100% | 0% | 100% | 100% | 80% | –
8 | CCOC(=O)c1nc(-c2ccc(Cl)cc2F)cc(N)c1SCC(F)(F)F [Compound 89, Ethyl 4-amino-6-(4-chloro-2-fluorophenyl)-3-((2,2,2-trifluoroethyl)thio)picolinate] | 30% | 0% | 0% | 0% | 70% | 90% | 0% | –
9 | COC(=O)c1nc(-c2ccc(Cl)cc2F)c(F)c(N)c1OC [Compound 69] | – | – | – | – | – | – | – | pest or weed control at 70 g/ha [1]: 85%; pest or weed control at 70 g/ha [2]: 10%; pest or weed control at 70 g/ha [3]: 100%; pest or weed control at 70 g/ha [4]: 0%; pest or weed control at 70 g/ha [5]: 0%; pest or weed control at 70 g/ha [6]: 100%; pest or weed control at 70 g/ha [7]: 30%
10 | COc1c(C(=O)O)nc(-c2ccc(C3CC3)nc2)c(F)c1N [Compound 77, 4-amino-6′-cyclopropyl-3-fluoro-5-methoxy-[2,3′-bipyridine]-6-carboxylic acid] | 80% | 95% | 90% | 65% | 75% | 95% | 85% | –
11 | COC(=O)c1nc(C(F)F)cc(N)c1OC [Compound 92] | 40% | 0% | 0% | 0% | 95% | 70% | 0% | –
12 | COc1c(N)cc(C(C)(F)F)nc1C(=O)O [Compound 82, 4-amino-6-(1,1-difluoroethyl)-3-methoxypicolinic acid] | 20% | 0% | 0% | 0% | 85% | 80% | 0% | –
13 | COC(=O)c1nc(-c2ccc(Cl)cc2)cc(N)c1OC [Compound 7, methyl 4-amino-6-(4-chlorophenyl)-3-methoxypicolinate] | 90% | 0% | 0% | 0% | 100% | 95% | 0% | –
